In paper PMC7876106 (Scientific Reports, 2021):

Tests used:
[1] = target: TERRA; test: FP assay, compound binding to 5′ fluorescein-labeled TERRA; conditions: 10 nM fluorescein-labeled probe, 3 independent experiments
Description: (§1) All the nucleic acids, peptides and chemicals were dissolved in buffer containing 20 mM HEPES pH7.5, 150 mM salt (KCl, NaCl, LiCl) at the stock concentration of 1 mM. For peptide and nucleic acid interactions, 25μL of each nucleic acids with a sequential twofold dilutions starting from 50 μM was added into each well of 96-well plate followed by adding 25μL of 10 nM FITC labeled TRF2 peptide. For compounds and nucleic acid interactions, 20μL of each compounds with a sequential twofold dilutions starting from 50 μM were added into each well of 96-well plate followed by adding 5μL of 20 ng/mL tRNA and 25μL of 10 nM FAM labeled nucleic acids. For inhibition assay, 5μL FITC labeled TRF2 GAR peptide (10 nM final concentration) and 10 μL oligos (5 μM final concentration) were mixed, followed by adding 5μL of each compound with a sequential twofold dilutions starting from 50 μM into each well of 384-well plate. All components were mixed thoroughly, and the plate was incubated at room temperature for 1 h before placing in an Envision Plate Reader for reading at 495/520 nm. All data curves were fitted using Prism 8.0.

[2] = test system: TERRA; test: CD spectroscopy of TERRA mixed with compound; conditions: 1:1 molar ratio, 150 mM KCl buffer
Description: All nucleic acids were dissolved in buffer containing 20 mM HEPES pH7.5, 150 mM salt (KCl or LiCl), 20% PEG8000 at the concentration of 10 μM for experiments. A J-815 spectrometer equipped with a PFD-425S Peltier cell holder was used to measure CD spectra at 4 °C between 200 and 340 nm to determine the secondary structure content of various oligo constructs. The molar ellipticity was calculated and the plot was made using Excel.

[3] = target: TeloDNA and TRF2 complex; test: FP inhibition assay, TRF2 GAR binding to TeloDNA; conditions: 10 nM peptide, 5 μM oligo
Description: as §1

[4] = target: TERRA and TRF2 complex; test: FP inhibition assay, TRF2 GAR binding to TERRA; conditions: for IC50: FP, 10 nM peptide, 5 μM oligo; for Selectivity Ratio IC50 (Tel DNA/TERRA): ratio of FP IC50 values
Description: as §1

[5] = test system: LOX cells; test: TIF assay (IF FISH, γH2AX or 53BP1 with telomere DNA) in LOX cells; assay type: cell-based, human; conditions: 2 μM, 3 days
Description: Mei et al, 2020 TERRA Requires TRF2 GAR Domain […]
Indirect immunofluorescence (IF) combined with fluorescence in situ hybridization (FISH) analysis for telomere dysfunction was performed as described 4 with some modifications. Briefly, cells grown on coverslips were fixed for 15 min in 2% paraformaldehyde/1x PBS at RT, followed by permeabilization for 10 min in 1x PBS/0.5% Triton X-100 at RT. After washing with 1x PBS, cells were incubated for 60 min in blocking solution (0.5% BSA, 0.2% fish gelatin, 0.1% Triton X-100, 1 mM EDTA in 1x PBS) before immuno-staining. Primary antibodies were prepared in blocking solution at following dilutions: anti-53BP1 (1:500, IHC-00001; Bethyl Laboratories) and γH2AX (1:2,000, A300-081A; Bethyl Laboratories). After IF, cells were fixed in 4% paraformaldehyde in 1x PBS for 10 min, washed in 1x PBS, dehydrated in ethanol series (70%, 95%, 100%), and air-dried. Coverslips were denatured for 5 min at 80-85° C in hybridization mix [70% formamide, 10 mM Tris-HCl, pH 7.2, and 0.5% blocking solution (Roche)] containing telomeric PNA-Cy3-(CCCTAA)3 probe, and hybridization was continued for 2 hrs at room temperature in the dark moisturized chambers. Coverslips were washed twice for 15 min each with 70% formamide, 10 mM Tris-HCl (pH 7.2), and 0.1% BSA, and followed by three washes for 5 min each with 0.15 M NaCl, 0.1 M Tris-HCl (pH 7.2), and 0.08% Tween-20. Nuclei were counterstained with 0.1 µg/ml DAPI in blocking solution and coverslips mounted with VectorShield (Vector Laboratories). RNA FISH was performed as previously described 1.
Images were captured with a 100x lens on a Nikon E600 Upright microscope (Nikon […]
Instruments, Inc., Melville, NY) with ImagePro Plus software (Media Cybernetics, Silver Spring, MD) for image processing. Cells with > 5 53BP1/γH2AX foci co-localizing with telomere DNA foci were scored as positive for TIF. The quantification was generated from at least three independent Immuno-FISH experiments. […]
0.1 μg/mL DAPI in 1x PBS and slides were mounted with VectorShield (Vector Laboratories).
Images were taken with a 100x lens on a Nikon E600 Upright microscope (Nikon Instruments) using ImagePro Plus software (Media Cybernetics) for image processing. Statistical analysis was performed using two-tailed Student t Test.

[6] = test system: LOX cells; test: Metaphase telomere FISH in LOX cells; assay type: cell-based, human; conditions: 2 μM, 3 days
Description: Mei et al, 2020 TERRA Requires TRF2 GAR Domain
Instruments, Inc., Melville, NY) with ImagePro Plus software (Media Cybernetics, Silver Spring, MD) for image processing. Cells with > 5 53BP1/γH2AX foci co-localizing with telomere DNA foci were scored as positive for TIF. The quantification was generated from at least three independent Immuno-FISH experiments.
FISH analysis on metaphase spreads was performed as previously described 5. Briefly, LOX cells were treated with indicated chemicals (2 µM) for 3 days in a 37 °C CO2 incubator. LOX TRF2∆B cells were cultured in the absence (-) or presence (+) of 1 µg/ml doxycycline for 20 days in 37 °C incubator. Colcemid (0.1 mg/ml; GIBCO) was then added to cells and incubated for 4 hrs to accumulate mitotic cells. Cells were collected by trypsinization and suspended in 75 mM KCl hypotonic solution at 37 °C for 25 min before fixation in fresh 3:1 methanol/acetic acid for 4-5 times. Fixed cells were dropped onto cold, wet glass microscope slides and allowed to dry slowly in a humid environment. Metaphase chromosome spreads were fixed in 4% paraformaldehyde in 1x PBS for 3 min, dehydrated in ethanol series [70%, 95%,100% (vol/vol)], and air-dried. Slides were denatured for 5 min at 81 °C in hybridization mix [70% (vol/vol) formamide, 10 mM Tris·HCl (pH 7.2), and 0.5% blocking solution (Roche)] containing telomeric PNA-Cy3-(CCCTAA)3 probe (PNA Bio). […]

Compound | EC50 [1] [µM] | alteration of CD spectrum of TERRA at major peak (~260 nm) [2] | IC50 [3] [µM] | IC50 [4] [µM] | Selectivity Ratio IC50 (Tel DNA/TERRA) [4] | increase in telomere-associated γH2AX compared to PP treatment [5] | level of γH2AX or 53BP1 associated telomere dysfunction-induced foci (TIFs) [5] | frequency of telomere aberrations incl. fragile telomere doublets [6]
CN(C)c1ccc(Nc2c3ccc(NC(=O)CCN4CCCC4)cc3nc3cc(NC(=O)CCN4CCCC4)ccc23)cc1 [BRACO-19] | 7.4 | not BRACO-19 or PP altered the CD spectrum | 0.04 | 0.24 | 0.17 | ~ three fold increase | moderate level | increased the frequency of telomere aberrations
CCc1c(C)c2cc3nc(cc4nc(cc5c(CC)c(C)c(cc1[nH]2)n5C)C(C)=C4CCC(=O)O)C(CCC(=O)O)=C3C [NMM, N-methyl mesoporphyrin IX] | 0.68 | altered the CD spectrum of TERRA | 1 | 0.42 | 2.38 | ~ fivefold increase | high level | increased the frequency of telomere aberrations
